Laboratory results taken from patent US20230391729A1, “SUCCINATE SALTS OF N-(3-(4-(3-(DIISOBUTYLAMINO)PROPYL)PIPERAZIN-1-YL)PROPYL)-1H-BENZO[D]IMIDAZOL-2-AMINE, PREPARATION THEREOF AND USE OF THE SAME” (ALZPROTECT, priority 2020, published 2023).

Test system: dopaminergic (TH positive) neurons
Test: Survival and neurite network of TH(+) mesencephalic neurons after rotenone injury
Type: cell-based, rat
Settings: rotenone 10 nM 24 h
Procedure: Rat dopaminergic neurons were cultured as described by Visanji et al. in FASEB J. 2008, 22(7): 2488-2497 and Callizot et al., in Plos One 2019: https://doi.org/10.1371/journal.pone.0215277. Briefly, pregnant female rat (Wistar) of 15 days of gestation were killed using a deep anesthesia with CO2 chamber and a cervical dislocation. The midbrains obtained from 15-day-old rat embryos (Janvier, France) were dissected under a microscope. The embryonic midbrains were removed and placed in ice-cold medium of Leibovitz (L15) containing 2% of Penicillin-Streptomycin (PS) and 1% of BSA. The ventral portion of the mesencephalic flexure, a region of the developing brain rich in dopaminergic neurons, were used for the cell preparations. The midbrains were dissociated by trypsinization for 20 min at 37° C. (solution at a final concentration of 0.05% trypsin and 0.02% EDTA). The reaction was stopped by the addition of DMEM containing DNAase I grade II (0.5 mg/mL) and 10% of FCS. Cells were then mechanically dissociated by 3 passages through a 10 ml pipette. Cells were then centrifuged at 180×g for 10 min at +4° C. on a layer of BSA (3.5%) in L15 medium. The supernatant was discarded and the cell pellets were re-suspended in a defined culture medium consisting of Neurobasal supplemented with B27 (2%), L-glutamine (2 mM) and 2% of PS solution and 10 ng/mL of BDNF and 1 ng/mL of Glial-Derived Neurotrophic Factor (GDNF). Viable cells were counted in a Neubauer cytometer using the trypan blue exclusion test. The cells were seeded at a density of 40,000 cells/well in 96 well-plates (pre-coated with poly-L-lysine) and maintained in a humidified incubator at 37° C. in 5% CO2/95% air atmosphere. Half of the medium was changed every 2 days with fresh medium. […]
The following read-outs were investigated: • neuron survival: total number of TH neurons (TH staining), • neurite network: total length of neurite network of TH positive neurons (in μm) • α-syn aggregation (area of overlapping between TH and α-syn staining in μm^2) […]

Substance: N-(3-(4-(3-(diisobutylamino)propyl)piperazin-1-yl)propyl)-1H-benzo[d]imidazol-2-amine sesqui-succinate salt [sesqui-succinate salt Form 1]
- neuron survival: total number of TH neurons (administered directly with rotenone, all concentrations): significantly increased neuronal survival
- neurite network of TH positive neurons (pre and co-treatment, 10 to 100 nM): significantly improved
- neuron survival: total number of TH neurons (pre-incubated, 10 and 50 nM): significantly neuroprotective
